Experimental data reported in ChEMBL document CHEMBL4602697 (J Med Chem, 2020).

What was measured:
[1] = target: T1, Muscarinic acetylcholine receptor M1 (Rattus norvegicus, UniProt P08482); assay: Displacement of [3H]pirenzepin from Wistar rat cortex muscarinic M1 receptor
T1 sequence (P08482 whole entry): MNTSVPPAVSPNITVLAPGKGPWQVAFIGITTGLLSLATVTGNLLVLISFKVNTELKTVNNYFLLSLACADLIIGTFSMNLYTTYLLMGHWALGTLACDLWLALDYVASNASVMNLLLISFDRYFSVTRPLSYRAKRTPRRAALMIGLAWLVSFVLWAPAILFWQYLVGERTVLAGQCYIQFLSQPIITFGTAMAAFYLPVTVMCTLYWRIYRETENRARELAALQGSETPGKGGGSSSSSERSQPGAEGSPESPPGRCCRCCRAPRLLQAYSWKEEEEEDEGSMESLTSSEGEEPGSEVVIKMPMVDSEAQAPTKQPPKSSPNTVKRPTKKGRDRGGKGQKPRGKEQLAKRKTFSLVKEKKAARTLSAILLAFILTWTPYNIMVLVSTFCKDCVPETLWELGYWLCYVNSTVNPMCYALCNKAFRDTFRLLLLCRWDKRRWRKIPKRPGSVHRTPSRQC

[2] = target: Muscarinic acetylcholine receptor M3 (Rattus norvegicus, UniProt P08483); assay: Displacement of [3H]-NMS from Wistar rat salivary gland muscarinic M3 receptor
Muscarinic acetylcholine receptor M3, sequence (P08483 whole entry): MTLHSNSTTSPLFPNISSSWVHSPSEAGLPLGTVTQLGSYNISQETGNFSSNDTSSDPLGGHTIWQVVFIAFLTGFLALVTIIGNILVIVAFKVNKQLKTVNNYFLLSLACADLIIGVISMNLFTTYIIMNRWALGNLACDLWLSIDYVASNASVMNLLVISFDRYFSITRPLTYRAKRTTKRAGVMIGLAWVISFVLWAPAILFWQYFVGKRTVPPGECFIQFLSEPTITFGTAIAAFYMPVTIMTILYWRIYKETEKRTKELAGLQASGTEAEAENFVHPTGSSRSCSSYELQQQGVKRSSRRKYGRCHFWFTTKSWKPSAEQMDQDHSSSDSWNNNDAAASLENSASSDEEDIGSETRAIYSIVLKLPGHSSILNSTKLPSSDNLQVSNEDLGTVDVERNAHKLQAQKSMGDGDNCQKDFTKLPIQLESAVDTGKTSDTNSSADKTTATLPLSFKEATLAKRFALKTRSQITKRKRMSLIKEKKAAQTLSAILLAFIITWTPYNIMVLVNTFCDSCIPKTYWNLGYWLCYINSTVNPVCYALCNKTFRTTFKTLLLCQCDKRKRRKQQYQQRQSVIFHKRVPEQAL

[3] = target: Muscarinic receptor M2 and M3 (Rattus norvegicus) (UniProt P08483+P10980); assay: Ratio of Ki for displacement of [3H]-QNB from Wistar rat heart muscarinic M2 receptor to Ki for displacement of [3H]-NMS from Wistar rat salivary gland muscarinic M3 receptor; assay type: protein assay
Muscarinic receptor M2 and M3 (Rattus norvegicus), sequence (P08483 whole entry, looked up, one chain of several): as the sequence (P08483 whole entry) above

[4] = organism: Rattus norvegicus; assay: Ratio of Ki for displacement of [3H]pirenzepin from Wistar rat cortex muscarinic M1 receptor to Ki for displacement of [3H]-NMS from Wistar rat salivary gland muscarinic M3 receptor
[5] = target: T2, Muscarinic acetylcholine receptor M2 (Rattus norvegicus, UniProt P10980); assay: Displacement of [3H]-QNB from Wistar rat heart muscarinic M2 receptor
T2 sequence (P10980 whole entry): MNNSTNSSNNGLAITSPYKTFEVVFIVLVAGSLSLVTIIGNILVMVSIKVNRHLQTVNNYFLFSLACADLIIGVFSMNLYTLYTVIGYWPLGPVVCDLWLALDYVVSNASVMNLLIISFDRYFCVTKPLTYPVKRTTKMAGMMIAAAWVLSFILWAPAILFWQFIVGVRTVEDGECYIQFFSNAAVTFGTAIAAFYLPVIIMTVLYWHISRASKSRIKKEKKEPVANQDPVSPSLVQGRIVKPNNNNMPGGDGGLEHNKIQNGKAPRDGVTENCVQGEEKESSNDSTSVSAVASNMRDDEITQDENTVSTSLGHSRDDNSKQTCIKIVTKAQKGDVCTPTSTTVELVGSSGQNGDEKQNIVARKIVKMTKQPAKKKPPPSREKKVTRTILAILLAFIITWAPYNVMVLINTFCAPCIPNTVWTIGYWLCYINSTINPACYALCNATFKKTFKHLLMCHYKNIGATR

[6] = Metabolic stability in Sprague-Dawley rat liver microsomes assessed as parent compound remaining at 20 uM measured for 120 mins by HPLC/MS analysis relative to control; assay type: ADME, Microsome; conditions: read-out: Stability
[7] = Permeability across apical to basolateral side in human Caco2 cells coexpressing Pgp at 5 uM measured for 3 hrs by UPLC/MS analysis relative to control; assay type: ADME, cell-based; conditions: caco-2, 3 h
[8] = Permeability across basolateral to apical side in human Caco2 cells coexpressing Pgp at 5 uM measured for 3 hrs by UPLC/MS analysis relative to control; assay type: ADME, cell-based; conditions: caco-2, 3 h
[9] = Permeability across basolateral to apical side in human Caco2 cells coexpressing Pgp at 5 uM in presence of P-gp inhibitor valspodar measured for 3 hrs by UPLC/MS analysis; assay type: ADME, cell-based; conditions: caco-2, 3 h
[10] = Permeability across apical to basolateral side in human Caco2 cells coexpressing Pgp at 5 uM in presence of P-gp inhibitor valspodar measured for 3 hrs by UPLC/MS analysis; assay type: ADME, cell-based; conditions: caco-2, 3 h

With `O=C(Nc1ccccc1-c1ccccc1)OC1CCNCC1` as the compound, how does the Ki [1] read?
Its Ki is 32 nM.

And the Ki [2]?
The Ki was 27 nM.

What about the Ratio Ki [3] of the same compound?
The Ratio Ki was 10.

What about the Ratio Ki [4] of the same compound?
The Ratio Ki was 1.2.

What about the Ki [5] of the same compound?
Its Ki is 270 nM.

With `O=C(Nc1ccc(F)cc1-c1ccc(F)c(Cl)c1)OCC1CCNCC1` as the compound, how does the remaining at 2 h, 20 µM [6] read?
The remaining at 2 h, 20 µM was 74%.

With `C[N+]12CCC(CC1)[C@@H](OC(=O)Nc1ccc(F)cc1-c1ccc(F)c(Cl)c1)C2` as the compound, how does the remaining at 2 h, 20 µM [6] read?
Its remaining at 2 h, 20 µM is 63%.

With `C[C@H]1O[C@@H](O[C@H]2[C@@H](O)C[C@H](O[C@H]3[C@@H](O)C[C@H](O[C@H]4CC[C@@]5(C)[C@H](CC[C@@H]6[C@@H]5C[C@@H](O)[C@]5(C)[C@@H](C7=CC(=O)OC7)CC[C@]65O)C4)O[C@@H]3C)O[C@@H]2C)C[C@H](O)[C@@H]1O` [DIGOXIN] as the compound, how does the permeability [7] read?
Its permeability is 6.7%.

And the permeability [8]?
Its permeability is 19.9%.

And the permeability [9]?
The permeability was 10.5%.

What about the permeability [10] of the same compound?
Its permeability is 10.2%.

For `C[N+]12CCC(CC1)[C@@H](OC(=O)Nc1ccc(F)cc1-c1cccc(Cl)c1)C2`, which remaining at 2 h, 20 µM [6] is on record?
The remaining at 2 h, 20 µM was 65%.

Which Ki [1] does the source give for `O=C(Nc1ccccc1-c1ccccc1)O[C@H]1CN2CCC1CC2` here?
Its Ki is 0.65 nM.

What about the Ki [2] of the same compound?
The Ki was 0.47 nM.

And the Ki [5]?
Its Ki is 7.6 nM.

Which remaining at 2 h, 20 µM [6] does the source give for `O=C(Nc1ccc(F)cc1-c1cccc(Cl)c1)OCC1CCNCC1` here?
Its remaining at 2 h, 20 µM is 53%.
